Earlier results in patent US6506434B1, “Process for coating N-[N-(3,3-dimethylbutyl)-L-α-aspartyl]-L-phenylalanine 1-methyl ester onto a carrier” (The NutraSweet Company, priority 1999, dated 2003).

Settings: relative to sugar; stated as known

Compound: COC(=O)[C@H](Cc1ccccc1)NC(=O)[C@H](CC(=O)O)NCCC(C)(C)C [neotame, N-[N-(3,3-dimethylbutyl)-L-α-aspartyl]-phenylalanine 1-methyl ester]
- sweetening potency (sweeter than sugar): about 8000 ×
